System: bioprinted liver organoids
Assay type: cell-based
Details: 20 mM NAC with 10 mM APAP, general trend of the data

CC(=O)N[C@@H](CS)C(=O)O [NAC, N-acetyl-L-cysteine]
rescue of liver organoids from APAP insult: can be rescued

Reference: patent publication US20230417740A1, “TISSUE-MIMICKING HYDROGEL COMPOSITIONS FOR BIOFABRICATION” (Wake Forest University Health Sciences, priority 2014, published 2023)
